Experimental data: ChEMBL document CHEMBL1201862, “PubChem BioAssay data set” (2004)
Activity calls are given as the source filed them.

What was measured:
[1] = NIH-3T3 fibroblast cytotoxicity, dose response, cytotoxicity control, cell-based, fluorescence, Alamar Blue, secondary assay (AID 2327); type: functional;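 also: NIH-3T3 mouse fibroblasts cultured with fluconazole at 8 µg/mL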
[2] = fluconazole-exposed Candida albicans growth modulators – fluorescence, retest, confirmation (AID 2467); type: functional, cell-based
[3] = Luminescence Cell-Based Dose Retest to Confirm Inhibitors of Cancer Stem Cells. [Related pubchem assays (depositor defined):AID2717, AID2721]; type: functional; settings: Homo sapiens
Jurkat = test: blockers of NF-kB activation in T cells – Jurkat, luciferase reporter, luminescence, B- and T-cell, dose response (AID 489004); type: functional, cell-based; settings: Homo sapiens;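 also: NF-kB luciferase reporter Jurkat cells stimulated with PMA plus ionomycin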
[4] = biological target: T1, Ubiquitin-conjugating enzyme E2 N (Homo sapiens, UniProt P61088); type: functional
T1 sequence (P61088 whole entry): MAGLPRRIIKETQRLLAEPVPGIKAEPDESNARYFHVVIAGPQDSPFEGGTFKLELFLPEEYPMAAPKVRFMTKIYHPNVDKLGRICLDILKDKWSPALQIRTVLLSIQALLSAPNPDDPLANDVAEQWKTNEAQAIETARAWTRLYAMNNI

[5] = HEK-293T viability loss, compound-treated – cell-based, uHTS hits, cytotoxicity control for B/T-cell NF-kB inhibitor project, dose response (AID 489019); type: functional;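 also: IC50 reflects cytotoxicity as loss of cell viability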
[6] = biological target: T2, Apoptotic protease-activating factor 1 (Homo sapiens, UniProt O14727); type: functional
T2 sequence (O14727 whole entry): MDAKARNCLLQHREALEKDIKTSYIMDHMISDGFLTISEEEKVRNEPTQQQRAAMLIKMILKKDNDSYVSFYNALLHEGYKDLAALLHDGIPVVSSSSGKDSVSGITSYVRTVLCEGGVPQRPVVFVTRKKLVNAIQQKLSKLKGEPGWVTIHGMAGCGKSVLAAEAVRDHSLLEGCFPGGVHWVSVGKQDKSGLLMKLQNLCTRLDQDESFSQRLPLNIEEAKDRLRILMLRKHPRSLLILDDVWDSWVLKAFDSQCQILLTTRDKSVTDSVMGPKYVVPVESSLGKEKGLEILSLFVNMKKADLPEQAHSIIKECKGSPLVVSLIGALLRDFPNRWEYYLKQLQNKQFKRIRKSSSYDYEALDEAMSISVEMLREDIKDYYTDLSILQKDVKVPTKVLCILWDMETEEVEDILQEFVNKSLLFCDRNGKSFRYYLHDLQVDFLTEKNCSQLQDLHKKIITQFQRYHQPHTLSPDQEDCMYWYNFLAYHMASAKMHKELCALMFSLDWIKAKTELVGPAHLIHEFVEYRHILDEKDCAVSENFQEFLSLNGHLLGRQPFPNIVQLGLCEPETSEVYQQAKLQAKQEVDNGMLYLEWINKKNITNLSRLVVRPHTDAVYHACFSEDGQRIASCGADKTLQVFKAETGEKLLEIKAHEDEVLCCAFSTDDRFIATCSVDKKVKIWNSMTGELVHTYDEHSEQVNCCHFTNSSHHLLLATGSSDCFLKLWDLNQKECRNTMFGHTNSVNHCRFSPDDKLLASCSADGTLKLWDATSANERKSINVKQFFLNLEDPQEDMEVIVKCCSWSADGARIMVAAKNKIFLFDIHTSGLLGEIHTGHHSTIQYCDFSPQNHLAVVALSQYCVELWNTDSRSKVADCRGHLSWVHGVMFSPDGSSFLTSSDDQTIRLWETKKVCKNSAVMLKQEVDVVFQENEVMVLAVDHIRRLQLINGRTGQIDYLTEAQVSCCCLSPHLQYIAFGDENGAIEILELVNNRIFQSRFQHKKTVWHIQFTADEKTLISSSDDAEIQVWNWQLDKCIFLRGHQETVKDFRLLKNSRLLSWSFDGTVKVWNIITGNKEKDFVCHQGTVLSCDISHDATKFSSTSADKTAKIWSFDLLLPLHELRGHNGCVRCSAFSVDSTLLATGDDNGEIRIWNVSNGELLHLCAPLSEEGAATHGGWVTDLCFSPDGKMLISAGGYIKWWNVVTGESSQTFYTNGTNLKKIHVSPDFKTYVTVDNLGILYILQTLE

INS1 = test: INS-1E survival protection against cytokine death – cell-based, luminescence, retest, dose response (AID 449756); type: functional; settings: Rattus norvegicus;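 also: cell death triggered by IL-1 beta plus TNF-alpha plus IFN-gamma mixture; protective hits raise ATP signal compared with cytokine alone wells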
[7] = biological target: T3, DNA repair protein RAD52 homolog (Homo sapiens, UniProt P43351); type: functional, biochemical
T3 sequence (P43351 whole entry): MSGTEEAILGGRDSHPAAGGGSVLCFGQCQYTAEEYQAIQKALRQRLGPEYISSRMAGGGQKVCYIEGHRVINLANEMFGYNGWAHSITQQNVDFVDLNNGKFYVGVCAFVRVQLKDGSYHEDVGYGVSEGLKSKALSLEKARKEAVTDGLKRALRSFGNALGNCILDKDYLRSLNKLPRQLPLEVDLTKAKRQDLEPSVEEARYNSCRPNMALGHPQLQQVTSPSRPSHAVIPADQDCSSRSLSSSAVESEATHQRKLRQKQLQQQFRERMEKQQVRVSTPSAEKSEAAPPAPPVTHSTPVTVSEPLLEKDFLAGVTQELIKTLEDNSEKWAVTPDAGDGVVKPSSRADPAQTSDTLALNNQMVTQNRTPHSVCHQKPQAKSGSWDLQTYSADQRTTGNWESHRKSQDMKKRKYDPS

[8] = microbe, parasite or virus in culture; type: functional; settings: Mycobacterium tuberculosis
Bcl-2-related protein A1 = biological target: T4, Bcl-2-related protein A1 (Mus musculus, UniProt Q07440); type: functional;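 also: confirmatory dose–response counterscreen on Bfl-1, used to check hits from a UBC13 polyubiquitin inhibitor campaign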
T4 sequence (Q07440 whole entry): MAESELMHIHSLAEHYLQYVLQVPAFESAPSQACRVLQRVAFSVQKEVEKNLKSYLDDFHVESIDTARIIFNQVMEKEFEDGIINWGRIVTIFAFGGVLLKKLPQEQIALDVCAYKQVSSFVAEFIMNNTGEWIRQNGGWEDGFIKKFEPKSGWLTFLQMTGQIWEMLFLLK

Coagulation factor XII = biological target: T5, Coagulation factor XII (Homo sapiens, UniProt P00748); type: functional;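 also: activated factor XIIa alpha cleaving a fluorogenic AMC peptide substrate; inhibitor potency from loss of enzyme activity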
T5 sequence (P00748 whole entry): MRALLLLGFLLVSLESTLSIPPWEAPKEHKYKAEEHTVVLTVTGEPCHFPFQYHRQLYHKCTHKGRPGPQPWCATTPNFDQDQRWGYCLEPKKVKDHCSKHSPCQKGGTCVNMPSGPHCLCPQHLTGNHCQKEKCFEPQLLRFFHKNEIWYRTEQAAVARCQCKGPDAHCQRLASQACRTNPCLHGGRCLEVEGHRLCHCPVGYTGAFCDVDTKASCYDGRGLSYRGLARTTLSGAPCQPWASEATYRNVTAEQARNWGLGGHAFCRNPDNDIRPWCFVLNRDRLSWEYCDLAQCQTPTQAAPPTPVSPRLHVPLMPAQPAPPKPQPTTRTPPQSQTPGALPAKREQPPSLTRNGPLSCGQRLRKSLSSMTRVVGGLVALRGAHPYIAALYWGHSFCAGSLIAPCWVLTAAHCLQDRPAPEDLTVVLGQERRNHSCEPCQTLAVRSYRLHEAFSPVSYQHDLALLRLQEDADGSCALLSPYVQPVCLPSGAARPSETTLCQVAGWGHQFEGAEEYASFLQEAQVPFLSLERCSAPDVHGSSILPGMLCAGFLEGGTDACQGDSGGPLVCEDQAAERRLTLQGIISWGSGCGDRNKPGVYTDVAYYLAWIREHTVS

[9] = biological target: T1, Ubiquitin-conjugating enzyme E2 N; type: functional; remark: listed apart in the source
Insulin-degrading enzyme [10] = biological target: T6, Insulin-degrading enzyme (Homo sapiens, UniProt P14735); test: recombinant IDE activation, cell-free – biochemical, fluorescence polarization, counter-screen for IDE activator project, dose response (AID 588681)
T6 sequence (P14735 whole entry): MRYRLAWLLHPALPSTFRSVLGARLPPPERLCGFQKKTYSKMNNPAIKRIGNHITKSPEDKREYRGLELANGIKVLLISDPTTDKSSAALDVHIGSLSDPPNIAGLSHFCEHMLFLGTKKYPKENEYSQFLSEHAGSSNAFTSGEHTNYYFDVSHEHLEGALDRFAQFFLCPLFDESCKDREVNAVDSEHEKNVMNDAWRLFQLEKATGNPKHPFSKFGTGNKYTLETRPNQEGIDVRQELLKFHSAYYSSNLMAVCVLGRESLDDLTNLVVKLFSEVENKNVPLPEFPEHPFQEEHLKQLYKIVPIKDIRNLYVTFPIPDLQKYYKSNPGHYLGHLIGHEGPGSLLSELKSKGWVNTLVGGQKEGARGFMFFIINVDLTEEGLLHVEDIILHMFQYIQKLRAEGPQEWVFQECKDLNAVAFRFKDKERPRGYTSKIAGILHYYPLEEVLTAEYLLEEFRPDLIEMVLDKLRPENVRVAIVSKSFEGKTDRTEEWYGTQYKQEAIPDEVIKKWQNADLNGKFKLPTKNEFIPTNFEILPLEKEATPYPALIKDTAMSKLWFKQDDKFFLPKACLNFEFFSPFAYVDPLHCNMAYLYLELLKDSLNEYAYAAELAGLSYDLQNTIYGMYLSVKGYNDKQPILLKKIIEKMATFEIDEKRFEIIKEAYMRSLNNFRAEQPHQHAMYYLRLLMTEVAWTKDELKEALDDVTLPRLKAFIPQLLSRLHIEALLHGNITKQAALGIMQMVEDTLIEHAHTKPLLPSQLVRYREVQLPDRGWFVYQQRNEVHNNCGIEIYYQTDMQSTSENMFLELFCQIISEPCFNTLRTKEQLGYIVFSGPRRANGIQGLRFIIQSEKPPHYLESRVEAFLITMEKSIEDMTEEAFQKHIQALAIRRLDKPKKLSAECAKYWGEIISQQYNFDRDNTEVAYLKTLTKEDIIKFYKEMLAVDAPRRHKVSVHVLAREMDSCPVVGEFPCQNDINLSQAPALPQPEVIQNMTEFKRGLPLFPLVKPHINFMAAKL

Insulin-degrading enzyme [11] = biological target: T6, Insulin-degrading enzyme; test: cellular IDE activation of Abeta substrate cleavage – fluorescence polarization, HEK cells, dose response (AID 588439); type: functional, cell-based
HEK293 [12] = test: membrane integrity loss in HEK cells – cell-based, fluorescence, cytotoxicity control for IDE activator project, dose response (AID 588440); type: functional; settings: Homo sapiens;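 also: cytotoxicity by LDH release measuring loss of membrane integrity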
HEK293 [13] = test: optical interference in Abeta FP readout, dose response, artefact control for IDE activator project, biochemical, fluorescence polarization (AID 588442); type: functional, cell-based; settings: Homo sapiens
[14] = activation of miR-122 Renilla sensor silencing – cell-based, Huh7 psiCHECK-miR122, Renilla luciferase, cherry-picked, dose response (AID 651956); type: functional;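 also: huh7 hepatoma cells stably carrying a psiCHECK-2 miR-122 sensor plasmid; renilla luciferase signal reporting endogenous miR-122 activity after 48 h compound exposure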
[15] = general mammalian cell viability loss – activator set, cherry-pick, cytotoxicity control for miR-122 modulator project, dose response (AID 720690); type: functional, cell-based;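 also: HEK293T human cells scored for general mammalian cytotoxicity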
[16] = viability loss in THP-1 monocytes – THP-1 cells, cytotoxicity control for Vif-APOBEC3G degradation inhibitor project, dose response (AID 1117359); type: functional; settings: THP-1
Activin receptor type-1 = Activin receptor type-1 (Homo sapiens, UniProt Q04771); test: Navigating the Kinome. Panel member name: ACVR1; type: functional
[17] = biological target: DNA dC->dU-editing enzyme APOBEC-3G (Homo sapiens, UniProt Q9HC16); test: inhibition of APOBEC3G ssDNA deamination – biochemical, fluorescence, single-stranded DNA substrate, SAR follow-up (AID 602136); type: functional; settings: read-out: IC50_Mean
[18] = biological target: DNA dC->dU-editing enzyme APOBEC-3A (Homo sapiens, UniProt P31941); test: SAR analysis of small molecule inhibitors of APOBEC3A DNA Deaminase via a fluorescence-based single-stranded DNA deaminase assay.; type: functional; settings: read-out: IC50_Mean
[19] = biological target: Serine/threonine-protein kinase pim-1 (Homo sapiens, UniProt P11309); type: functional
[20] = biological target: Cell division cycle 7-related protein kinase (Homo sapiens, UniProt O00311); type: functional;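 also: value obtained from a kinome-wide kinase panel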
[21] = biological target: MAP kinase-interacting serine/threonine-protein kinase 2 (Homo sapiens, UniProt Q9HBH9); type: functional
[22] = biological target: Interleukin-1 receptor-associated kinase 4 (Homo sapiens, UniProt Q9NWZ3); type: functional
[23] = biological target: Glycogen synthase kinase-3 beta (Homo sapiens, UniProt P49841); type: functional;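 also: value comes from a broad kinome profiling panel, with GSK3B as the panel member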
[24] = biological target: cAMP-dependent protein kinase catalytic subunit alpha (Homo sapiens, UniProt P17612); type: functional
[25] = biological target: Mitogen-activated protein kinase kinase kinase kinase 4 (Homo sapiens, UniProt O95819); type: functional
Sequence of Mitogen-activated protein kinase kinase kinase kinase 4 (O95819 whole entry): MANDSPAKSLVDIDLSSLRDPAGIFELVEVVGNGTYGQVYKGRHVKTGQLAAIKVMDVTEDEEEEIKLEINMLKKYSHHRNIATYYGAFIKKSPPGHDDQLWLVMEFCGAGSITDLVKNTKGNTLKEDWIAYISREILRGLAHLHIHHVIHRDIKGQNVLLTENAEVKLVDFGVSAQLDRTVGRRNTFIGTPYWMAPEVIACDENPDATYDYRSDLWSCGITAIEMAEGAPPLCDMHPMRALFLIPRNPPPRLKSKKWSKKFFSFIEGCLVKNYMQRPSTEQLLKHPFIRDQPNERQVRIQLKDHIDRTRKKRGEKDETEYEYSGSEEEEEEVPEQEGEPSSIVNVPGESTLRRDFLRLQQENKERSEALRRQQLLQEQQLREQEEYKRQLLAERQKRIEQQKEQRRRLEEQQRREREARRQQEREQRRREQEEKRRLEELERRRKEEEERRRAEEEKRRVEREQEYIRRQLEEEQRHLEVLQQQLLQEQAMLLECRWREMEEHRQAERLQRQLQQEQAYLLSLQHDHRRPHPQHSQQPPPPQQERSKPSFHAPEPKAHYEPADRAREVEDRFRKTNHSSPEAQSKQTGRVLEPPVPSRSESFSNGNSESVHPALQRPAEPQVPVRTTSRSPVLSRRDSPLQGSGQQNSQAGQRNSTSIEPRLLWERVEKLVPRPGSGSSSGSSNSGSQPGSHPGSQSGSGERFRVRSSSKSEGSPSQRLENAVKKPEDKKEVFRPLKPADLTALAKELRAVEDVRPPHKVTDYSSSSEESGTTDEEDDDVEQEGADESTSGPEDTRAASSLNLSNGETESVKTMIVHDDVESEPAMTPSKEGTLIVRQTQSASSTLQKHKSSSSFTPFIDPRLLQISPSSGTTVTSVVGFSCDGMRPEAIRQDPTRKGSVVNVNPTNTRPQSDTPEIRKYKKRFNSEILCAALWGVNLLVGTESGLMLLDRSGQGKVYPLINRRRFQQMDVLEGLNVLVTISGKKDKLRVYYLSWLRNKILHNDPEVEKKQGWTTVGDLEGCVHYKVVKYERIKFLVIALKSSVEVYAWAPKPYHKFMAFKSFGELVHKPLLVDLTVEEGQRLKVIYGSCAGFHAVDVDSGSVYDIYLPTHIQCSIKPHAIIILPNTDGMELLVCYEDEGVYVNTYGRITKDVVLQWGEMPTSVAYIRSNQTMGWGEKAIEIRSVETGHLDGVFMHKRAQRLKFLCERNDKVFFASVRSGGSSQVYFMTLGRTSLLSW

Sequence of DNA dC->dU-editing enzyme APOBEC-3G (Q9HC16 whole entry): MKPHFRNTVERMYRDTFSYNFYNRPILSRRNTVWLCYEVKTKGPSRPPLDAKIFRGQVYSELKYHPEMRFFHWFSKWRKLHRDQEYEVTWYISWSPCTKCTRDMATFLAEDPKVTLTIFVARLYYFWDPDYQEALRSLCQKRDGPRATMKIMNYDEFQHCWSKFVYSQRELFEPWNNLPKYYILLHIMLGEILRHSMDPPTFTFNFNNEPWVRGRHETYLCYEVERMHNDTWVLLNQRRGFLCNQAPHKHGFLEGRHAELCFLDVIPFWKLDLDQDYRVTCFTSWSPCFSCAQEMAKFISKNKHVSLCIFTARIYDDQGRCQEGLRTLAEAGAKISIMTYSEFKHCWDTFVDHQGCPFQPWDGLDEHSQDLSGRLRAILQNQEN
Sequence of DNA dC->dU-editing enzyme APOBEC-3A (P31941 whole entry): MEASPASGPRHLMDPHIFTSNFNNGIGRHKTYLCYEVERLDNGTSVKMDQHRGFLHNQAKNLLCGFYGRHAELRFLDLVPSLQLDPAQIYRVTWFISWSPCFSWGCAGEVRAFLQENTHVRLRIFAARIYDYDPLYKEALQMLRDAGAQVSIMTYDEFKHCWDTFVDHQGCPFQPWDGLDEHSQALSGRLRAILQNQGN
Sequence of Cell division cycle 7-related protein kinase (O00311 whole entry): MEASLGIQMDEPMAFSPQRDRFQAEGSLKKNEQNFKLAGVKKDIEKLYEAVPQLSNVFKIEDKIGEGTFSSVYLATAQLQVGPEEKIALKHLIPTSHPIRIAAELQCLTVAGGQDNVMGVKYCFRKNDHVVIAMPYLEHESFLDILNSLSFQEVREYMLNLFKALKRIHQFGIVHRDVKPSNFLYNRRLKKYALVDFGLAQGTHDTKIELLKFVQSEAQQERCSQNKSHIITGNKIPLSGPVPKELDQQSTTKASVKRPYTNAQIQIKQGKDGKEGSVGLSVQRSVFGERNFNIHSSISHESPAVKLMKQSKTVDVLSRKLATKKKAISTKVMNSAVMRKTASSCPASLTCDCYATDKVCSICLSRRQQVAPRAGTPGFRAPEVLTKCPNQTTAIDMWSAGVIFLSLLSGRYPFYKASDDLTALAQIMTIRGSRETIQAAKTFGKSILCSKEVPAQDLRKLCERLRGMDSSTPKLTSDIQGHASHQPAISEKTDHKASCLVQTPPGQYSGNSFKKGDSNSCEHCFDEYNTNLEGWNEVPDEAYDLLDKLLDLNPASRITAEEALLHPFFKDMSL
Sequence of MAP kinase-interacting serine/threonine-protein kinase 2 (Q9HBH9 whole entry): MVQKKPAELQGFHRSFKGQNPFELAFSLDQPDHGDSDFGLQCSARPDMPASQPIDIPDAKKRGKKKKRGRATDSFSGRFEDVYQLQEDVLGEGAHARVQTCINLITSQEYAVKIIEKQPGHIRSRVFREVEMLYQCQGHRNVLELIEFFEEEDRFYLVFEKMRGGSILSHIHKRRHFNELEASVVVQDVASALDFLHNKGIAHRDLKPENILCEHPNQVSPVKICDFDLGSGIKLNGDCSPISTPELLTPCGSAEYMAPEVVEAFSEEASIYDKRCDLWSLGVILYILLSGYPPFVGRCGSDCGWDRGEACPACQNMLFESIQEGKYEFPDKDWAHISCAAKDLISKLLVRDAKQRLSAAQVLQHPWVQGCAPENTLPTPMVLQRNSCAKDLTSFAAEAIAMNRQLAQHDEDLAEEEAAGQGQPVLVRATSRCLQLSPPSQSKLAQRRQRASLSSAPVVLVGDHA
Sequence of Interleukin-1 receptor-associated kinase 4 (Q9NWZ3 whole entry): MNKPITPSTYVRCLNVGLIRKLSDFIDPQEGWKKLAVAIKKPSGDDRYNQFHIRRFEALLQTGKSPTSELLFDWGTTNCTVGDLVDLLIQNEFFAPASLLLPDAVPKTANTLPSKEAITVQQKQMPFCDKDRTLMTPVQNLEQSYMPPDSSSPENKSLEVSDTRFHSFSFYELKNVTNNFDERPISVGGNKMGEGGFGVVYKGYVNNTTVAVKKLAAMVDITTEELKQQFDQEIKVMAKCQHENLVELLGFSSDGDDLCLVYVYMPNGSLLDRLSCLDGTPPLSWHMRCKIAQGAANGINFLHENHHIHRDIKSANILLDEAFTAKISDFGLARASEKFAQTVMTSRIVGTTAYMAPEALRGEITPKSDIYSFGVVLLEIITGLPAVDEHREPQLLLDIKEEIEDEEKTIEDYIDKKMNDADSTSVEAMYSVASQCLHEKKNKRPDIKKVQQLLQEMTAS
Sequence of Activin receptor type-1 (Q04771 whole entry): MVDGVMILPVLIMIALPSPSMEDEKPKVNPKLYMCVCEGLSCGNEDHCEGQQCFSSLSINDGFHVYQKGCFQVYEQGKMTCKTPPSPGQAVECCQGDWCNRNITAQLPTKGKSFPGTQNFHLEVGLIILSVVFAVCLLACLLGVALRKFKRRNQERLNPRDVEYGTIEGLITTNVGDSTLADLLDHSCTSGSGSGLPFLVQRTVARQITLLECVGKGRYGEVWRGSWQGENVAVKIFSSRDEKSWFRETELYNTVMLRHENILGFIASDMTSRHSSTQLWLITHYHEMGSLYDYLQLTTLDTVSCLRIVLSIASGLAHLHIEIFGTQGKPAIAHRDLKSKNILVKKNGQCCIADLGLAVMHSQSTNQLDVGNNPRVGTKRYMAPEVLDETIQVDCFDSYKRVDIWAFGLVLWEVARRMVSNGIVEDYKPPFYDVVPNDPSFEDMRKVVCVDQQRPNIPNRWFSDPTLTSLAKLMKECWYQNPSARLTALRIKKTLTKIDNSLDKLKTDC
Sequence of Glycogen synthase kinase-3 beta (P49841 whole entry): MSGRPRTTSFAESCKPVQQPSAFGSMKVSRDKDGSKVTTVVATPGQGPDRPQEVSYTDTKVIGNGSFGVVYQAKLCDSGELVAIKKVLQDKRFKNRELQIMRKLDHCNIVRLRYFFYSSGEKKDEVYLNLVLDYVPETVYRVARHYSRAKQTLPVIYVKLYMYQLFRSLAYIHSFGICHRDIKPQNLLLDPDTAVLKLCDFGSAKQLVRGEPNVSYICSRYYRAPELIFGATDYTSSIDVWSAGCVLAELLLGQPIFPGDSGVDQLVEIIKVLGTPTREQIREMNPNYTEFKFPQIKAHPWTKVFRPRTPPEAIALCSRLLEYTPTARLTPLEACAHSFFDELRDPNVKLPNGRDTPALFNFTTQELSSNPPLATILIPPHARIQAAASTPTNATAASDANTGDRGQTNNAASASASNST
Sequence of Serine/threonine-protein kinase pim-1 (P11309 whole entry): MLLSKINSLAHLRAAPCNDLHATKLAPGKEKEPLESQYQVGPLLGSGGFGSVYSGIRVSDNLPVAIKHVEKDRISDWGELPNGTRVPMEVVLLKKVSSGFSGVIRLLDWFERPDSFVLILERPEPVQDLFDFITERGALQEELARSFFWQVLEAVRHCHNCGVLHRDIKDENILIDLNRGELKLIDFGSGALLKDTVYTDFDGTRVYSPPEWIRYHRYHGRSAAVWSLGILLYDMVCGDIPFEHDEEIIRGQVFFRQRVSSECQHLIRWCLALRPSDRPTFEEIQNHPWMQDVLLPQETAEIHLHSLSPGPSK

Compound: CCCCCc1ccc(OCCCC[n+]2cccc(C)c2)c(CCCCC)c1
- EC50 [1]: > 150 µM (inactive)
- EC50 [2]: 0.755 µM (active)
- AC50 [3]: 0.694 µM (active)
- IC50 (Jurkat): 4.68 µM (active)
- IC50 [4]: > 20 µM (inactive)
- IC50 [5]: 68.8 µM (inactive)
- IC50 [6]: 28.5 µM (active)
- AC50 (INS1): 1.64 µM (active)
- AC50 [7]: 15.1 µM (active)

Compound: CN(C)CCNc1ncnc2c1sc1nc(-c3ccccc3)c3c(c12)CCCC3
- CC50 [8]: 7.38 µM (active)
- IC50 (Bcl-2-related protein A1): > 20 µM (inactive)
- IC50 [4]: 13 µM (active)
- IC50 (Coagulation factor XII): > 50 µM (inactive)
- IC50 [9]: 7.72 µM (active)
- EC50 (Insulin-degrading enzyme [10]): > 54.7 µM (inactive)
- EC50 (Insulin-degrading enzyme [11]): 21.7 µM (inactive)
- IC50 (HEK293 [12]): 10.4 µM (inactive)
- EC50 (HEK293 [13]): > 54.7 µM (inactive)
- AC50 [14]: 19.4 µM (active)
- AC50 [7]: 6.93 µM (active)
- AC50 [15]: 16.2 µM (active)
- CC50 [16]: 31.1 µM (active)

Compound: Cn1c(=O)n(-c2ccc(C(C)(C)C#N)cc2)c2c3cc(-c4cnc5ccccc5c4)ccc3ncc21 [DACTOLISIB]
- Ki (Activin receptor type-1): 1.26 µM (active)

Compound: CC(=O)Nc1ccc(NC(=O)COC(=O)c2[nH]nc3ccccc23)cc1
- EC50 (Insulin-degrading enzyme [10]): > 54.7 µM (inactive)
- EC50 (Insulin-degrading enzyme [11]): > 54.7 µM (inactive)
- IC50 (HEK293 [12]): > 89.2 µM (inactive)
- EC50 (HEK293 [13]): > 54.7 µM (inactive)

Compound: CC(C)Cn1c(=O)c2cc(Cl)ccc2n2c(SCc3ccc(Cl)cc3)nnc12
- IC50 [17]: > 99 µM (inactive)
- IC50 [18]: > 99 µM (inactive)

Compound: CCCCNc1cc(-c2c[nH]c3ncccc23)ncn1
- Ki [19]: 0.158 µM (active)
- Ki [20]: 0.00631 µM (active)
- Ki [21]: 0.0631 µM (active)
- Ki [22]: 1 µM (active)
- Ki [23]: 0.0501 µM (active)
- Ki [24]: 1 µM (active)
- Ki [25]: 0.0158 µM (active)

Compound: Cn1c(SCC(N)=O)nnc1-c1sc2cc(Cl)ccc2c1Cl
- IC50 [17]: > 99 µM (inactive)
- IC50 [18]: > 99 µM (inactive)
